This note sets out measurements from patent US8815879B2, “Substituted 4-(selenophen-2(or-3)-ylamino)pyrimidine compounds and methods of use thereof” (Kasina Laila Innova Pharmaceuticals Private Limited, priority 2010, dated 2014).

The test system of data set [1] is human colorectal carcinoma HT29 cells. Kind of data set: MTT based cell proliferation assay, HT29. The note with it: for IC50: read-out: Cell Proliferation Inhibition in HT29 (Colon carcinoma), IC50; for inhibition at 10 µg/mL: read-out: Cell Proliferation Inhibition in HT29 (Colon carcinoma), % at highest screening dose.
Description: (§1) MTT [3-(4,5-dimethylthiazol-2-yl)-2,5-diphenyltetrazolium bromide] incorporation based cell proliferation assay was performed using standard procedure. […] The assay was carried out according to the instructions provided by the vendor. […] Vehicle control culture wells received only a maximum of 0.5% DMSO. Thereafter, 0.5 mg/ml of MTT reagent was added to each well and the microplate was incubated further for 4 h at 37° C. in presence of 5% CO2. Finally, the cells were solubilized by adding solubilizing solution and allowed to incubate at 37° C. overnight. After complete solubilization of the formazan crystals the absorbance was read at 540 nm in a microplate reader (BioRad, USA).
(§2) The evaluation of cell proliferation inhibitory activities of the compounds was done in two phases—(1) Screening, and (2) half-maximal inhibitory concentration (IC50) determination. In the screening phase, the cells were treated with three different concentrations e.g. 1, 5 and 10 μg/ml.
In data set [2] the test system is human lung carcinoma A549 cells. Kind of data set: MTT based cell proliferation assay, A549. The conditions noted are these: for IC50 / inhibition at 10 µg/mL: Homo sapiens, A549, 72 h; for IC50: read-out: Cell Proliferation Inhibition in A549 (Lung carcinoma), IC50; for inhibition at 10 µg/mL: read-out: Cell Proliferation Inhibition in A549 (Lung carcinoma), % at highest screening dose.
Description: as §1, §2

The subject of data set [3] is human prostate DU145 cells. Kind of data set: MTT based cell proliferation assay, DU145. The note with it: for IC50: read-out: Cell Proliferation Inhibition in DU145 (Prostate carcinoma), IC50; for inhibition at 10 µg/mL: read-out: Cell Proliferation Inhibition in DU145 (Prostate carcinoma), % at highest screening dose.
Description: as §1, §2

Where a name gives a salt, the structure may show the parent alone. Read-outs that look alike come from different tables or passages of the source.

In general, melting point refers to the temperature of the solid-liquid transition. In the case of `COc1cc2ncnc(Nc3cc(C(C)(C)C)[se]c3C(N)=O)c2cc1OCCCN1CCOCC1` (as salt: HCl) [Compound 3, 3-(6-(3-morpholinopropoxy)-7-methoxyquinazolin-4-ylamino)-5-tert-butylselenophene-2-carboxamide], the melting point lay in the range of 262 to 264 °C.

`COc1cc2ncnc(Nc3cc(C(C)(C)C)[se]c3[N+](=O)[O-])c2cc1OCCCN1CCOCC1` (as salt: HCl) [Compound 4, [5-(tert-butyl)-2-nitroselenophen-3-yl][7-methoxy-6-(3-morpholino-propoxy)quinazolin-4-yl]amine] showed a melting point of 240 to 242 °C.

In turn, `COc1cc2c(Nc3cc(C(C)(C)C)[se]c3C(N)=O)ncnc2cc1OCCCN1CCOCC1` (as salt: HCl) [Compound 5, 3-(7-(3-morpholinopropoxy)-6-methoxyquinazolin-4-ylamino)-5-tert-butylselenophene-2-carboxamide] showed a melting point of 262 to 264 °C.

In turn, `COCCOc1cc2ncnc(Nc3cc(C(C)(C)C)[se]c3C(N)=O)c2cc1OCCOC` (as salt: HCl) [Compound 6, 3-(6,7-bis(2-methoxyethoxy)quinazolin-4-ylamino)-5-tert-butylselenophene-2-carboxamide] gave a melting point of 224 to 226 °C.

`COc1cc2ncnc(Nc3cc(-c4ccccc4)[se]c3C(N)=O)c2cc1OCCCN1CCOCC1` (as salt: HCl) [Compound 7, 3-(6-(3-morpholinopropoxy)-7-methoxyquinazolin-4-ylamino)-5-phenyl-selenophene-2-carboxamide] showed a melting point of 266 to 270 °C.

As for `COc1cc2c(Nc3cc(C(C)(C)C)[se]c3C(N)=O)ncnc2c(OC)c1OC` [Compound 2, 3-(6,7,8-trimethoxyquinazolin-4-ylamino)-5-tert-butylselenophene-2-carboxamide], the IC50 in data set [1] (Homo sapiens, HT-29, 72 h) came to 19.3 µM; in data set [2] it was 31.1 µM; in data set [3] (Homo sapiens, DU-145, 72 h) it was 5.98 µM.

Consider `COc1cc2ncnc(Nc3cc(C(C)(C)C)[se]c3C(N)=O)c2cc1OCCCN1CCOCC1` [Compound 3, 3-(6-(3-morpholinopropoxy)-7-methoxyquinazolin-4-ylamino)-5-tert-butylselenophene-2-carboxamide], for which the IC50 in data set [1] (Homo sapiens, HT-29, 72 h) was determined as 5.12 µM; in data set [2] it was 6.71 µM; in data set [3] (Homo sapiens, DU-145, 72 h), 7.39 µM.

Turning to `COc1cc2ncnc(Nc3cc(C(C)(C)C)[se]c3[N+](=O)[O-])c2cc1OCCCN1CCOCC1` [Compound 4, [5-(tert-butyl)-2-nitroselenophen-3-yl][7-methoxy-6-(3-morpholino-propoxy)quinazolin-4-yl]amine], in data set [1] (Homo sapiens, HT-29, 72 h), the IC50 was determined as 19.3 µM. Besides, the inhibition at 10 µg/mL worked out at 10.4% in data set [2] and 9.85% in data set [3] (Homo sapiens, DU-145, 72 h).

As for `COc1cc2c(Nc3cc(C(C)(C)C)[se]c3C(N)=O)ncnc2cc1OCCCN1CCOCC1` [Compound 5, 3-(7-(3-morpholinopropoxy)-6-methoxyquinazolin-4-ylamino)-5-tert-butylselenophene-2-carboxamide], the IC50 was 4.07 µM in data set [1] (Homo sapiens, HT-29, 72 h); 4.6 µM in data set [2]; 3.9 µM in data set [3] (Homo sapiens, DU-145, 72 h). In addition, the “potency in vitro compared to gefitinib (Iressa), HT29” value in data set [1] (ratio of IC50 values) is reported as “several times better potency”. Also, the “potency in vitro compared to gefitinib (Iressa), A549” value in data set [2] (ratio of IC50 values) is “approximately four times”. The “potency in vitro compared to gefitinib (Iressa), DU145” value in data set [3] (ratio of IC50 values) was “several times better potency”.

Take `COCCOc1cc2ncnc(Nc3cc(C(C)(C)C)[se]c3C(N)=O)c2cc1OCCOC` [Compound 6, 3-(6,7-bis(2-methoxyethoxy)quinazolin-4-ylamino)-5-tert-butylselenophene-2-carboxamide]: the inhibition at 10 µg/mL worked out at 86.4% in data set [1] (Homo sapiens, HT-29, 72 h); 5.09% in data set [2]; 39.7% in data set [3] (Homo sapiens, DU-145, 72 h).

As for `COc1cc2ncnc(Nc3cc(-c4ccccc4)[se]c3C(N)=O)c2cc1OCCCN1CCOCC1` [Compound 7, 3-(6-(3-morpholinopropoxy)-7-methoxyquinazolin-4-ylamino)-5-phenyl-selenophene-2-carboxamide], the inhibition at 10 µg/mL in data set [1] (Homo sapiens, HT-29, 72 h) is 85.8%. For the same molecule, the IC50 turned out to be 6.08 µM in data set [2] and 5.84 µM in data set [3] (Homo sapiens, DU-145, 72 h).

As for `CC(C)(C)c1cc(Nc2ncnc3ccc(N)cc23)c(C(N)=O)[se]1` [Compound 8, 3-(6-aminoquinazolin-4-ylamino)-5-tert-butylselenophene-2-carboxamide], the inhibition at 10 µg/mL in data set [1] (Homo sapiens, HT-29, 72 h) amounted to 81.9%; in data set [2], 7.6%; in data set [3] (Homo sapiens, DU-145, 72 h) it was 15.7%.

Consider `CC(C)(C)c1cc(Nc2ncnc3ccc(NC(=O)CCl)cc23)c(C(N)=O)[se]1` [Compound 9, 3-(6-(2-chloroacetamido)quinazolin-4-ylamino)-5-tert-butylselenophene-2-carboxamide], for which the IC50 turned out to be 9.24 µM in data set [1] (Homo sapiens, HT-29, 72 h) and 8.51 µM in data set [3] (Homo sapiens, DU-145, 72 h). The inhibition at 10 µg/mL in data set [2] came out at 0.19%.

For the molecule `COC(=O)c1cc(Nc2ncnc3cc(OC)c(OCCCN4CCOCC4)cc23)c(C)[se]1` [Compound 10, methyl 4-(6-(3-morpholinopropoxy)-7-methoxyquinazolin-4-ylamino)-5-methylselenophene-2-carboxylate], the inhibition at 10 µg/mL in data set [1] (Homo sapiens, HT-29, 72 h) was found to be 6.11%; in data set [2], 10.3%; in data set [3] (Homo sapiens, DU-145, 72 h), 21.4%.

On to `COc1cc2ncnc(Nc3cc(C(N)=O)[se]c3C)c2cc1OCCCN1CCOCC1` [Compound 11, 4-(6-(3-morpholinopropoxy)-7-methoxyquinazolin-4-ylamino)-5-methylselenophene-2-carboxamide], for which the inhibition at 10 µg/mL amounted to 7.41% in data set [1] (Homo sapiens, HT-29, 72 h); 16% in data set [2]; 5.15% in data set [3] (Homo sapiens, DU-145, 72 h).

Take `CC(C)(C)c1cc(Nc2ncnc3ncccc23)c(C(N)=O)[se]1` [Compound 12, 5-tert-butyl-3-(pyridino[2,3-d]pyrimidin-4-ylamino)selenophene-2-carboxamide]: the inhibition at 10 µg/mL in data set [1] (Homo sapiens, HT-29, 72 h) came out at 6.75%; in data set [2] it was 7%; in data set [3] (Homo sapiens, DU-145, 72 h), 9.18%.

With `CCc1c(C)sc2ncnc(Nc3cc(C(C)(C)C)[se]c3C(N)=O)c12` [Compound 13, 3-(5-ethyl-6-methylthiopheno[2,3-d]pyrimidin-4-ylamino)-5-tert-butylselenophene-2-carboxamide], the inhibition at 10 µg/mL amounted to 30.2% in data set [1] (Homo sapiens, HT-29, 72 h); 5.68% in data set [2]; 8.49% in data set [3] (Homo sapiens, DU-145, 72 h).

As to `CC(C)(C)c1cc(Nc2ncnc3cc(C(C)(C)C)[se]c23)c(C(N)=O)[se]1` [Compound 18, 3-(6-tert-butylselenopheno[3,2-d]pyrimidin-4-ylamino)-5-tert-butylselenophene-2-carboxamide], the inhibition at 10 µg/mL was found to be 36.4% in data set [1] (Homo sapiens, HT-29, 72 h); 2.18% in data set [2]; 7.87% in data set [3] (Homo sapiens, DU-145, 72 h).

Regarding `CCc1c(C)[se]c2ncnc(Nc3cc(C(C)(C)C)[se]c3C(N)=O)c12` [Compound 19, 3-(5-ethyl-6-methylselenopheno[2,3-d]pyrimidin-4-ylamino)-5-tert-butylselenophene-2-carboxamide], the inhibition at 10 µg/mL in data set [1] (Homo sapiens, HT-29, 72 h) turned out to be 43.9%; in data set [2] it was 7.86%; in data set [3] (Homo sapiens, DU-145, 72 h) it was 6.68%.

For `CSc1nc2ncnc(Nc3cc(C(C)(C)C)[se]c3C(N)=O)c2s1` [Compound 20, 3-(2-(methylthio)thiazolo[4,5-d]pyrimidin-7-ylamino)-5-tert-butylseleno-phene-2-carboxamide], the IC50 in data set [1] (MTT, three days incubation) is 9.54 µM; in data set [3] (MTT, three days incubation) it was 17.9 µM. Moreover, the “Cell Proliferation Inhibition in A549 (Lung carcinoma), % at highest screening dose” value in data set [2] (at 10 μg/ml (highest dose tested in screening), micromolar equivalent printed in each cell, three days) stood at 1.28% at 23.42 μM.

Regarding `COc1cc2ncnc(N(C)c3cc(C(C)(C)C)[se]c3C(N)=O)c2cc1OCCCN1CCOCC1` [Compound 22, 3-(N-(6-(3-morpholinopropoxy)-7-methoxyquinazolin-4-yl)-N-methylamino)-5-tert-butylselenophene-2-carboxamide], the inhibition at 10 µg/mL was 34.3% in data set [1] (Homo sapiens, HT-29, 72 h); 3.93% in data set [2]; 14.7% in data set [3] (Homo sapiens, DU-145, 72 h).

For the molecule `COc1cc2ncnc(N(CCCl)c3cc(C(C)(C)C)[se]c3C(N)=O)c2cc1OCCCN1CCOCC1` [Compound 23, 3-(N-(6-(3-morpholinopropoxy)-7-methoxyquinazolin-4-yl)-N-(2-chloroethyl)amino)-5-tert-butylselenophene-2-carboxamide], the inhibition at 10 µg/mL in data set [1] (Homo sapiens, HT-29, 72 h) was found to be 40.7%; in data set [2], 3.28%; in data set [3] (Homo sapiens, DU-145, 72 h) it was 22.4%.

As for `COc1cc2nc(C)nc(Nc3cc(C(C)(C)C)[se]c3C(N)=O)c2cc1OC` [Compound 24, 3-(6,7-dimethoxy-2-methylquinazolin-4-ylamino)-5-tert-butylselenophene-2-carboxamide], in data set [1] (Homo sapiens, HT-29, 72 h), the IC50 came to 10.6 µM. For the same molecule, the inhibition at 10 µg/mL in data set [2] is 15.1%; in data set [3] (Homo sapiens, DU-145, 72 h), 87.7%.

As to `COC(=O)c1cc(Nc2nc(C)nc3cc(OC)c(OC)cc23)c(C)[se]1` [Compound 25, methyl 4-(6,7-dimethoxy-2-methylquinazolin-4-ylamino)-5-methylselenophene-2-carboxylate], the inhibition at 10 µg/mL in data set [1] (Homo sapiens, HT-29, 72 h) was found to be 11.8%; in data set [2], 2.95%; in data set [3] (Homo sapiens, DU-145, 72 h), 2.59%.

As to `COc1cc2nc(C)nc(Nc3cc(C(C)(C)C)[se]c3C(N)=O)c2cc1OCCCN1CCOCC1` [Compound 26, 3-(6-(3-morpholinopropoxy)-7-methoxy-2-methylquinazolin-4-ylamino)-5-tert-butylselenophene-2-carboxamide], the IC50 in data set [1] (Homo sapiens, HT-29, 72 h) is 4.28 µM; in data set [2], 11.7 µM; in data set [3] (Homo sapiens, DU-145, 72 h), 6.78 µM.
